In series [1] the test system is sensitised behavioural response to amphetamine in mice. In words: Amphetamine sensitisation: sensitised behavioural response to amphetamine in mice. The format is in vivo, mouse. The conditions noted are these: amphetamine-pretreated mice, compound s.c. 30 min before D-amphetamine challenge 1.25 mg/kg s.c., 30 min test; for ED50: Mus musculus, read-out: Inhibition of amphetamine sensitised response. ED50 (±S.D.). The procedure: Inhibition of the behavioral response to an acute amphetamine challenge in sensitised animals is proposed as a model for evaluating the antipsychotic or antimanic potential of compounds.
Subjects. Male NMRI mice (Charles River) weighing approx. 35 g are used. The animals were housed 6 mice pr cage in a 12-hr light/dark cycle under controlled conditions for regular in-door temperature (21±2° C.) and humidity (55±5%) with food and tap water available ad libitum. 12 mice are used pr experimental group.
Administration of compounds.

The nature of series [2]: Inhibition of baseline motility in vehicle-pretreated, vehicle-challenged mice. The conditions noted are these: NMRI, mouse, in vivo.
The subject of series [3] is amphetamine-induced hyperactivity in the rat. In words: Amphetamine challenge: d-amphetamine induced hyperactivity in rats. It is filed as in vivo. As to conditions: test substance s.c. 30 min before d-amphetamine sulphate 0.5 mg/kg, motility 2 hours, read-out: Amphetamine antagonism ED50 ± std. dev. An excerpt: D-amphetamine administration to rodents stimulates an increase in locomotor activity via mesolimbic dopamine receptors in the nucleus accumbens. While psychostimulant psychosis may not model all forms of schizophrenia, it may have applicability to paranoid schizophrenia and non-schizophrenic psychotic disorders (Krystal et al. pp. 214-224 in Neurobiology of Mental Illness ISBN 0-19-511265-2). It is believed that inhibition of the amphetamine-induced increase in locomotor activity is a reliable method for the evaluation of compounds with an antipsychotic potential (Ögren et al., European J. Pharmacol. 1984, 102, 459-464). In the following experiment, it was tested if the inhibition of spontaneous DA neurons in the mesolimbic circuit that was assessed above, could be translated into behavioral antipsychotic endpoint.
Subjects. Male Wistar rats (Taconic, Denmark) weighing 170-240 g are used. The animals were housed under a 12-hr light/dark cycle under controlled conditions for regular in-door temperature (21±2° C.) and humidity (55±5%) with food and tap water available ad libitum. Eight rats were used at each dose level and in the parallel control group receiving the vehicle to the test compound plus d-amphetamine and the group receiving vehicle injections only.

The subject of series [4] is DA levels in the nucleus accumbens. In words: Microdialysis: DA levels in the nucleus accumbens of freely moving rats. The format is in vivo, rat. As to conditions: 5 mg/kg s.c., freely moving rats. The source says: It is well-known that psychostimulants increase locomotor activity via an increase in extracellular DA levels in the nucleus accumbens, which is the terminal area of the mesolimbic DA projections (Guix et al., 1992, Neurosci. Lett., 138(1), 137-140; Moghaddam et al., 1989, Synapse, 4(2), 156-161). It is also known, that the antagonistic effect of antipsychotics on stimulant-induced hyperlocomotion is related to the effect of antipsychotics to inhibit the stimulated DA levels in the nucleus accumbens (Broderick et al., 2004, Prog. Neuropsychopharmacology and Biol. Psych., 28, 157-171). Thus, the nucleus accumbens is an accepted neuroanatomical site for testing reversal of positive symptoms of psychosis. […] The experiments were conducted such that the data may be associated with the behavioural data obtained above.
Subjects. Male Sprague-Dawley rats (Charles River), initially weighing 275-300 g, were used. The animals were housed under a 12-hr light/dark cycle under controlled conditions for regular in-door temperature (21±2° C.) and humidity (55±5%) with food and tap water available ad libitum.
Surgery. Animals were anaesthetized with hypnorm/dormicum (2 ml/kg s.c.) and intracerebral guide cannulas (CMA/12) were stereotaxically implanted, positioning the dialysis probe tip in the nucleus accumbens (co-ordinates: […] anterior to bregma, —1.2 mm lateral to bregma, 8.0 mm ventral to the dura). Anchor screws and acrylic cement was applied for fixation of the guide cannula. The body temperature of the animals was maintained at 37° C. by means of a rectal probe and a heating plate. The rats were allowed to recover from surgery for 2 days, housed singly in cages.
Experimental procedure. On the day of the experiment, a microdialysis probe (CMA/12, 0.5 mm diameter, 2 mm length) was inserted through the guide cannula of the conscious animal. The probes were connected to a microinjection pump via a dual channel swivel which allowed the animals unrestricted movements. Perfusion of the microdialysis probe with filtered Ringer solution (145 mM NaCl, 3 mM KCl, 1 mM MgCl2, 1.2 mM CaCl2) was maintained for the duration of the experiment at a constant flow rate of 1 μL/min. After 180 min of stabilisation, the experiments were initiated. Dialysates were collected every 20 min. After the experiments the rats were sacrificed by decapitation, their brains removed, frozen and sliced for probe placement verification.
Administration of compounds. […] Thirty min after the first administration dex-amphetamine sulphate (0.5 mg/kg s.c.) was administered.
Analysis of dialysate. The concentration of dopamine (DA) in the dialysates was assessed by means of HPLC with electrochemical detection. The dialysate constitutents were separated by reverse phase liquid chromatography (ODS 150×3 mm, […]). Mobile phase consisted of 90 mM NaH2PO4, 50 mM sodium citrate, 367 mg/l sodium 1-octanesulfonic acid, 50 μM EDTA and 8% acetonitrile (pH 4.0) at a flow rate of 0.5 ml/min. Electrochemical detection of DA was accomplished using a coulometric detector; potential set at E1=−75 mV and E2=300 mV (guard cell at 350 mV) (Coulochem II, ESA). The dialysate levels of DA in the three dialyse samples preceding the administration of compound were averaged and used as baseline level of DA (100%)

Series [5] relates to conditioned avoidance response in rats. The series is described as follows: Conditioned avoidance response in rats. It is filed as in vivo, rat. The conditions noted are these: for % inhibition of avoidance. Relative to baseline.: rats; for Escape failures (effect on motor performance): rat, in vivo. An excerpt: In the conditioned avoidance response (CAR) model, rats are trained to respond to a stimulus within a fixed time by moving from one place to another in order to avoid a footshock. Antipsychotics selectively suppress the avoidance response within a certain dose-range without suppressing escape behavior elicited by the appearance of the footshock. The CAR model is considered to be a predictive and reliable animal model that is sensitive to compounds with an antipsychotic potential.
Subjects. Male Wistar rats (Taconic, Denmark) weighing 150 g at the beginning of the study are used. The rats are housed ii pairs and maintained on a 12 h light/dark cycle (lights on 06:00). The animals are fed once daily (approx. 6 pellets/rat) in order to keep the rats at 80% of their free-feeding weight. Water is available ad libitum. Temperature (21±1° C.) and relative humidity (55±5%) are automatically controlled.
Experimental procedure. Conditioned avoidance testing is conducted using four automated shuttle-boxes (ENV-010M, MED-Associates) each placed in a sound-attenuated chamber. Each box is divided into two compartments by a partition with an opening. The position of the animal and crossings from one compartment to the other are detected by two photocells placed on either side of the dividing wall. Upon presentation of the conditioned stimuli (CS), tone and light, the animals have 10 s to cross to the other compartment of the shuttle-box in order to turn the CS off (end the trial) and avoid the appearance of the unconditioned stimulus (UCS). If the rat remains in the same compartment for more than 10 s, the UCS is presented as 0.5 mA scrambled foot-shocks until escape is performed or 10 s in maximal duration. The following behavioural variables are evaluated: avoidance (response to CS within 10 s); escape (response to CS+UCS); escape failures (failure to respond); intertrial crosses and locomotor activity. The rats are habituated to the shuttle-box 3 min before each test session. During training each test session consists of 30 trials with intertrial intervals varying randomly between 20 s and 30 s. Training is carried until the rats display an avoidance of 80% or more, on 3 consecutive days. A test is preceded by a pre-test the day before giving rise to a baseline value for each animal, thus the animals serve as their own control. Seven to eight rats are used at each dose level. A parallel control group receiving the vehicle of the test compound is also included.
Administration of compound.
Statistical analyses. The effects of compounds on avoidance and escape failure behaviours were statistically evaluated by means of a two-way repeated measures ANOVA followed by post hoc comparisons (Student-Newman-Keuls Method) when appropriate. P-levels <0.05 were considered statistically significant.

In series [6] the test system is DA levels in the nucleus accumbens. The series is described as follows: Microdialysis: DA levels in the nucleus accumbens of freely moving rats. It is filed as in vivo, rat. As to conditions: no amphetamine provocation, data not shown.
Series [7] can be described thus: Motility inhibition (sedative properties) without d-amphetamine, rat. As to conditions: Wistar, in vivo, sc.
Another series in a line: in vivo. The conditions noted are these: Wistar, rat, sc.
The test system of series [8] is immobility in the mouse forced swim test. In words: Mouse forced swim test. The format is in vivo. As to conditions: 30 min before the test, mice, last 3 min of 6 min swim, vehicle = 100.
In series [9] the test system is baseline motility in mice. The series is described as follows: Inhibition of baseline motility in vehicle-pretreated, vehicle-challenged mice. As to conditions: vehicle-pretreated, vehicle-challenged mice, compound s.c.
Where [10] appears, read: 2.5 mg/kg s.c. 30 min before the test.
[11] abbreviates: 5 mg/kg s.c. 30 min before the test.

The ED50 is the dose that gives a 50% effect, or the effect in half of the subjects.

Structures are written as SMILES.

Regarding `CCCCCC(=O)Nc1c(F)cc(N2CCOCC2)cc1F` [Hexanoic acid (2,6-difluoro-4-morpholin-4-yl-phenyl)-amide], the ED50 in series [1] came to 2.4 mg/kg. The ED50 at 30 min in series [2] (subcutaneous) is greater than 5 mg/kg.

With `Cc1cc(N2CCOCC2)cc(C)c1NC(=O)CC(C)(C)C`, the ED50 in series [3] is 2.1 mg/kg; in [1] it was 1.6 mg/kg. Besides, the “DA level in the nucleus accumbens, amphetamine + compound” value in series [4] (time 0 min) is given as 91 ± 4 % of baseline; in [4] (time −20 min), 100 ± 3 % of baseline. Moreover, the results for the “% inhibition of avoidance. Relative to baseline.” value in [5] (setting [10]) and in series [5] (setting [11]) were 1% and 71%, respectively. For the same compound, in series [5], the “Escape failures (effect on motor performance)” value is recorded as “None of the tested doses caused any incidences of escape failures”. In addition, the “Effect on basal extracellular DA level in the nucleus accumbens” value in series [6] is recorded as “merely provoked levels of DA were affected, but not basal levels of DA”. Also, the 50% effect level in series [7] (ED50 at 2 h) was put at a dose of 7.6 mg/kg. Besides, the ED50 at 30 min in series [2] (subcutaneous) is greater than 2.5 mg/kg.

Regarding `Cc1cc(N2CCOCC2)cc(C)c1NC(=O)CC1CCCC1`, the figures for the ED50 in series [3] and in series [1] were 2.6 mg/kg and 1.2 mg/kg, respectively. In addition, the “DA level in the nucleus accumbens, amphetamine + compound” value in series [4] (time 0 min) is on record as 99 ± 4 % of baseline; in [4] (time −40 min) it was 95 ± 6 % of baseline. Also, the “% inhibition of avoidance. Relative to baseline.” value in series [5] (setting [10]) came out at 5%; in series [5] (setting [11]), 65%. Also, the “Escape failures (effect on motor performance)” value in series [5] is recorded as “None of the tested doses caused any incidences of escape failures”. In series [6], the “Effect on basal extracellular DA level in the nucleus accumbens” value is on record as “merely provoked levels of DA were affected, but not basal levels of DA”. In [7], this compound displayed an ED50 at 2 h of 5.3 mg/kg. For the same compound, in series [2] (subcutaneous), the ED50 at 30 min was found to be 2.2 mg/kg.

Turning to `[Li]` [Lithium-chloride], in series [3], the ED50 is 12 mg/kg. Besides, the ED50 at 2 h in the series “in vivo” was greater than 40 mg/kg.

With `CCC(=O)Nc1c(Br)cc(N2CCOCC2)cc1C(F)(F)F` [N-(2-Bromo-4-morpholin-4-yl-6-trifluoromethyl-phenyl)-propionamide], the ED50 in series [1] was found to be 3.1 mg/kg. Further, the ED50 at 30 min in [2] (subcutaneous) is 6 mg/kg.

Regarding `Cc1cc2c(s1)Nc1ccccc1N=C2N1CCN(C)CC1` [Olanzapine], the ED50 in series [3] stood at 0.21 mg/kg. In addition, the Immobility in % in [8] (dose 0.31 mg/kg) was 96%; in series [8] (dose 1.3 mg/kg), 95%.

On to `Cc1nc(N2CCOCC2)nc(C)c1NC(=O)CC1CCCC1` [2-Cyclopentyl-N-(4,6-dimethyl-2-morpholin-4-yl-pyrimidin-5-yl)-acetamide], for which, in series [1], the ED50 worked out at 0.9 mg/kg. Besides, the ED50 at 30 min in [2] (subcutaneous) stood at 2.5 mg/kg.

On to `COc1cc(N2CCOCC2)cc(C)c1NC(=O)CC1CCCC1` [2-Cyclopentyl-N-(2-methoxy-6-methyl-4-morpholin-4-yl-phenyl)-acetamide], for which the ED50 in series [1] was determined as 1.7 mg/kg. Also, the ED50 at 30 min in series [2] (subcutaneous) is 3 mg/kg.

Regarding `Cc1cc(N2CCOCC2)nc(C)c1NC(=O)CC(C)(C)C` [N-(2,4-Dimethyl-6-morpholin-4-yl-pyridin-3-yl)-3,3-dimethyl-butyramide], the ED50 in series [1] came out at 1.4 mg/kg. In series [2] (subcutaneous), the ED50 at 30 min amounted to 3.1 mg/kg.

As to `Cc1nc(N2CCOCC2)nc(C)c1NC(=O)Cc1ccc(F)cc1` [N-(4,6-Dimethyl-2-morpholin-4-yl-pyrimidin-5-yl)-2-(4-fluoro-henyl)-acetamide], the “Inhibition of amphetamine sensitised response. ED50 (±S.D.)” value in series [1] came to 0.4 mg/kg. Further, the “Inhibition of baseline motility. ED50 (±S.D.)” value in [9] was 2.2 mg/kg.

In the case of `CCOC(=O)Nc1ccc(NCc2c(C)cc(C)cc2C)cc1N` [[2-Amino-4-(2,4,6-trimethyl-benzylamino)-phenyl]-carbamic acid ethyl ester], the ED50 at 30 min in series [2] was found to be 4.3 mg/kg.

For the origin of these results see patent US20090118285A1, “USE OF KCNQ-OPENERS FOR TREATING OR REDUCING THE SYMPTOMS OF SCHIZOPHRENIA” (H. Lundbeck A/S, priority 2006, published 2009).
